# Data taken from patent publication US12049450B2, “Pyridyloxy-carboxylate derivative and preparation method therefor, herbicidal composition, and use” (Qingdao Kingagroot Chemical Compound Co., Ltd., priority 2018, dated 2024).
# Experiments:
# Test in all cases: Post-emergence test experiment (greenhouse pot, spray at 2-3 leaf stage)
# Type in all cases: in vivo
# Conditions in all cases: 1000 g/ha; post-emergence spray at 2-3 leaf stage; assessed after 3 weeks; fresh weight inhibition rate
# [1] = system: Echinochloa crusgalli
# How it was run: (§1)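 Activity graded levels 0-5 by fresh-weight inhibition (level 5 above 85%, level 0 below 5%), assessed 3 weeks after treatment. Plants grown in greenhouse pots were sprayed post-emergence at 2-3 leaves using acetone/tween-80 solutions with methyl oleate synergist (1.5 L/ha).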
# [2] = system: Digitaria sanguinalis
# How it was run: as §1
# [3] = system: Monochoria vaginalis
# How it was run: as §1
# [4] = system: Galium spurium
# How it was run: as §1
# [5] = system: Abutilon theophrasti
# How it was run: as §1
SMILES,Activity level (growth inhibition rate) Echinochloa crusgalli [1],Activity level (growth inhibition rate) Digitaria sanguinalis [2],Activity level (growth inhibition rate) Monochoria Vaginalis [3],Activity level (growth inhibition rate) Galium spurium [4],Activity level (growth inhibition rate) Abutilon theophrasti [5]
CC(Oc1nc(F)c(Cl)c(N)c1Cl)C(=O)OCc1ccccc1C(F)(F)F (centres unmarked) [Compound 208],5 (Level 5: the growth inhibition rate is greater than 85%),5 (Level 5: the growth inhibition rate is greater than 85%),5 (Level 5: the growth inhibition rate is greater than 85%),5 (Level 5: the growth inhibition rate is greater than 85%),5 (Level 5: the growth inhibition rate is greater than 85%)
CC(Oc1nc(F)c(Cl)c(N)c1Cl)C(=O)OCc1cccc(C(F)(F)F)c1 (centres unmarked) [Compound 209],5 (Level 5: the growth inhibition rate is greater than 85%),5 (Level 5: the growth inhibition rate is greater than 85%),5 (Level 5: the growth inhibition rate is greater than 85%),5 (Level 5: the growth inhibition rate is greater than 85%),5 (Level 5: the growth inhibition rate is greater than 85%)
CC(Oc1nc(F)c(Cl)c(N)c1Cl)C(=O)OCc1ccc(C(F)(F)F)cc1 (centres unmarked) [Compound 210],5 (Level 5: the growth inhibition rate is greater than 85%),5 (Level 5: the growth inhibition rate is greater than 85%),5 (Level 5: the growth inhibition rate is greater than 85%),5 (Level 5: the growth inhibition rate is greater than 85%),5 (Level 5: the growth inhibition rate is greater than 85%)
CC(Oc1nc(F)c(Cl)c(N)c1Cl)C(=O)OCc1cccc2ccccc12 (centres unmarked) [Compound 211],5 (Level 5: the growth inhibition rate is greater than 85%),5 (Level 5: the growth inhibition rate is greater than 85%),5 (Level 5: the growth inhibition rate is greater than 85%),5 (Level 5: the growth inhibition rate is greater than 85%),5 (Level 5: the growth inhibition rate is greater than 85%)
CC(Oc1nc(F)c(Cl)c(N)c1Cl)C(=O)OCc1ccco1 (centres unmarked) [Compound 212],5 (Level 5: the growth inhibition rate is greater than 85%),5 (Level 5: the growth inhibition rate is greater than 85%),5 (Level 5: the growth inhibition rate is greater than 85%),5 (Level 5: the growth inhibition rate is greater than 85%),5 (Level 5: the growth inhibition rate is greater than 85%)
CC(Oc1nc(F)c(Cl)c(N)c1Cl)C(=O)OCc1ccoc1 (centres unmarked) [Compound 213],5 (Level 5: the growth inhibition rate is greater than 85%),5 (Level 5: the growth inhibition rate is greater than 85%),5 (Level 5: the growth inhibition rate is greater than 85%),5 (Level 5: the growth inhibition rate is greater than 85%),5 (Level 5: the growth inhibition rate is greater than 85%)
CC(Oc1nc(F)c(Cl)c(N)c1Cl)C(=O)OCc1cccs1 (centres unmarked) [Compound 214],5 (Level 5: the growth inhibition rate is greater than 85%),5 (Level 5: the growth inhibition rate is greater than 85%),5 (Level 5: the growth inhibition rate is greater than 85%),5 (Level 5: the growth inhibition rate is greater than 85%),5 (Level 5: the growth inhibition rate is greater than 85%)
CC(Oc1nc(F)c(Cl)c(N)c1Cl)C(=O)OCc1ccsc1 (centres unmarked) [Compound 215],5 (Level 5: the growth inhibition rate is greater than 85%),5 (Level 5: the growth inhibition rate is greater than 85%),5 (Level 5: the growth inhibition rate is greater than 85%),5 (Level 5: the growth inhibition rate is greater than 85%),5 (Level 5: the growth inhibition rate is greater than 85%)
CC(Oc1nc(F)c(Cl)c(N)c1Cl)C(=O)OCc1ccnn1C (centres unmarked) [Compound 216],5 (Level 5: the growth inhibition rate is greater than 85%),5 (Level 5: the growth inhibition rate is greater than 85%),5 (Level 5: the growth inhibition rate is greater than 85%),5 (Level 5: the growth inhibition rate is greater than 85%),5 (Level 5: the growth inhibition rate is greater than 85%)
CC(Oc1nc(F)c(Cl)c(N)c1Cl)C(=O)OCc1cnn(C)c1 (centres unmarked) [Compound 217],5 (Level 5: the growth inhibition rate is greater than 85%),5 (Level 5: the growth inhibition rate is greater than 85%),5 (Level 5: the growth inhibition rate is greater than 85%),5 (Level 5: the growth inhibition rate is greater than 85%),5 (Level 5: the growth inhibition rate is greater than 85%)
Cc1ccccc1CSC(=O)C(C)Oc1nc(F)c(Cl)c(N)c1Cl (centres unmarked) [Compound 218],5 (Level 5: the growth inhibition rate is greater than 85%),5 (Level 5: the growth inhibition rate is greater than 85%),5 (Level 5: the growth inhibition rate is greater than 85%),5 (Level 5: the growth inhibition rate is greater than 85%),5 (Level 5: the growth inhibition rate is greater than 85%)
Cc1cccc(CSC(=O)C(C)Oc2nc(F)c(Cl)c(N)c2Cl)c1 (centres unmarked) [Compound 219],5 (Level 5: the growth inhibition rate is greater than 85%),5 (Level 5: the growth inhibition rate is greater than 85%),5 (Level 5: the growth inhibition rate is greater than 85%),5 (Level 5: the growth inhibition rate is greater than 85%),5 (Level 5: the growth inhibition rate is greater than 85%)
Cc1ccc(CSC(=O)C(C)Oc2nc(F)c(Cl)c(N)c2Cl)cc1 (centres unmarked) [Compound 220],5 (Level 5: the growth inhibition rate is greater than 85%),5 (Level 5: the growth inhibition rate is greater than 85%),5 (Level 5: the growth inhibition rate is greater than 85%),5 (Level 5: the growth inhibition rate is greater than 85%),5 (Level 5: the growth inhibition rate is greater than 85%)
